These results are taken from patent US12714721B2, “Methods of treatment of a cytokine storm” (Loma Linda University Health, priority 2020, dated 2026).

The assay concerns LPS-treated animals. Description: Survival study of LPS-treated animals with teriflunomide. As to conditions: 20 mg/kg of LPS i.p. and 4 mg of teriflunomide. The format is in vivo. As for the experimental part: A survival study was performed with sixteen animals per group of LPS-treated animals following no treatment and treatment with teriflunomide. The control group received 20 mg/kg of LPS i.p. and no treatment; whereas the teriflunomide group received 20 mg/kg of LPS and 4 mg of teriflunomide. None of the control animals lived up to 24 hours, whereas 6 of the teriflunomide treat animals lived out to 96 hours at which time they appeared normal. The P value for the difference was less than 0.0021. FIG. 20 is a graphical representation of the survival of LPS-treated animals following no treatment and treatment with teriflunomide. All of the animals were treated with 20 mg/kg of LPS i.p. Kaplan-Meier survival in response to LPS administration. Comparison of the trend of survival curve was done using the log-rank (Mantel-Cox) test (recommended), and ** p<0.01.

Each structure is given as a SMILES string.

Turning to `C/C(O)=C(\C#N)C(=O)Nc1ccc(C(F)(F)F)cc1` [teriflunomide], the Median survival (Kaplan-Meier) was found to be 48.00. Moreover, the “animals that lived out to 96 hours” value (sixteen animals per group) came to 6.
